In one assay the test system is MESSA cells. Kind of assay: Cytotoxicity assay (PrestoBlue cell viability), MESSA. In kind it is cell-based. To be noted: Homo sapiens, MES-SA; 48 hours treatment; concentration inducing 50% cell mortality. The procedure: (§1) Messa, Messa DX5, HCT116, HEK-293, PC-3, LNCaP, HCC827 and H1975 cell lines are issued from the American Type Culture Collection (ATCC).
(§2) Messa, Messa DX5 and HCT116 were maintained in McCoy's supplemented with 10% fetal bovine serum, and 1% penicillin/streptomycin. PC-3, LNCaP cells were maintained in RPMI medium supplemented with 10% fetal bovine serum, and 1% penicilin/streptomycin and in the case of Messa DX5: 500 nM Doxorubicin was added to maintain selection pressure. HEK293 were maintained in DMEM medium supplemented with 10% fetal bovine serum, and 1% penicillin/streptomycin. Cells were maintained at 37° C. with 5% CO2, 95% air, and humid atmosphere. In the case of hormonal dependent LNCaP cells, 2 μM DiHydroTestosterone (DHT) was added or not—depending on the type of biological assay—for the same incubation period as compounds.
(§3) For cytotoxicity assays, cells were seeded in 96-well microplates 24 hours before the addition of increasing concentrations of each compound in the culture medium. Cell viability was analyzed 48 hours following addition of each compound through the monitoring of mitochondrial […] activity using PrestoBlue® Cell Viability Reagent (Invitrogen; #A-13261). Paclitaxel was used as a control which is cytotoxic on various cancerous cells although not on chemoresistant MESSA DX5 lineage.

The subject of a further assay is MESSA DX5 cells. Kind of assay: Cytotoxicity assay (PrestoBlue cell viability), MESSA DX5. In kind it is cell-based, human. As for the experimental part:
as §1, §2, §3

In assay [1] the target is T1, USP2 full length (USP2^FL) (Homo sapiens, UniProt O75604).
T1 construct: purchased BioSciences 80352
T1 sequence (O75604 1-605): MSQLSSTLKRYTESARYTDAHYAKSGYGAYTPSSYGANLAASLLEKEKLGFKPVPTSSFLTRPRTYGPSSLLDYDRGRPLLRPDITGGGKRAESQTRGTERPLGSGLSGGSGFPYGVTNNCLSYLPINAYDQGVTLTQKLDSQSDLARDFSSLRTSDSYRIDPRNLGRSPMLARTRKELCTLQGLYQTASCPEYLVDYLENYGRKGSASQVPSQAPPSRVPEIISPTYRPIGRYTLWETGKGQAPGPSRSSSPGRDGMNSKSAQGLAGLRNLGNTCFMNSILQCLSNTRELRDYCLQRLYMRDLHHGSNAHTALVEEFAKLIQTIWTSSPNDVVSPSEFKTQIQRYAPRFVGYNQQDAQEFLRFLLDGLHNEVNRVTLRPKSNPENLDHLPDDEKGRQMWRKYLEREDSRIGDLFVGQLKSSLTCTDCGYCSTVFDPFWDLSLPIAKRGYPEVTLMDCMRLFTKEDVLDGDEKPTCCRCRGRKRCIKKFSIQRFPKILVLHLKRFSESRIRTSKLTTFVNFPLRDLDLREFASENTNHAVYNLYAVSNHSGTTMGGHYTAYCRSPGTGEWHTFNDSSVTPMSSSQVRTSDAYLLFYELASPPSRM
Kind of assay: Inhibition of Ub-AMC hydrolysis by USP2 full length. Conditions: Ub-AMC at 1 μM, Table 1a; for inhibition at 1 µM: 1 μM compound; for inhibition at 5 µM: 5 μM compound; for inhibition at 25 µM: 25 μM compound; for inhibition at 50 µM: 50 μM compound. In kind it is biochemical. As for the experimental part: (§4) Enzymatic assay was performed in a HEPES buffer (50 mM pH7.6 1 mM DTT, 2% glycerol, 0.5 mM EDTA) or in a Tris buffer (40 mM pH7.4 1 mM DTT, 5% glycerol, 0.05 mg/ml BSA) respectively, following manufacturer's instructions. Compounds were added to the reaction mixture just prior to the substrate. The enzymatic reaction kinetics was monitored through the apparition of fluorescence due to the hydrolysis of the peptidyl Ub-AMC or Ub-Rho bound over 20 or 30 minutes.

The target in assay [2] is T2, USP8^CD (purified catalytic domain of USP8) (Homo sapiens, UniProt P40818).
T2 construct: the purified catalytic domain of USP8 (USP8^CD, in-house purified); made in house; host or cells: E. coli BL21 Gold
T2 sequence (P40818 777-1109 limits assumed): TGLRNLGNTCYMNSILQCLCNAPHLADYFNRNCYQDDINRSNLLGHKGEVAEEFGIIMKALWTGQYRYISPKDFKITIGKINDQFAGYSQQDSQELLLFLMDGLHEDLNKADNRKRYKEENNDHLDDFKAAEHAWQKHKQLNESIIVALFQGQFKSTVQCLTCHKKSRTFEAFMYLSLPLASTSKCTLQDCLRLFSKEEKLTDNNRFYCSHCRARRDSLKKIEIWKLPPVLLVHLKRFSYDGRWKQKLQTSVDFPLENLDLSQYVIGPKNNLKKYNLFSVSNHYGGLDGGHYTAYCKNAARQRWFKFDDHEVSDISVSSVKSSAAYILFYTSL
Kind of assay: Inhibition of purified USP8^CD enzymatic activity (Ub-AMC or Ub-Rho substrate). In kind it is biochemical. To be noted: for inhibition at 1 µM: 1 μM compound; for inhibition at 1 µM / USP8^CD % inhibition: Ub-AMC at 1 μM, Table 1a. As for the experimental part:
(§5) USP2CD or USP8CD were expressed in E. coli BL21 Gold. Cells were grown in LB Miller to mid-log phase and induced by addition of 0.5 mM IPTG for USP2CD for 5 h at 20° C., while 1 mM IPTG was added for USP8CD for 3 h at 37° C. Then, cells were harvested and frozen at −80° C.
For His-tagged USP8CD, cells were resuspended in buffer A (50 mM TRIS pH 8.0, 500 mM NaCl, 2 mM Imidazole) and lysed using a sonicator. The lysate was clarified by centrifugation and applied to Ni Sepharose6 Fast Flow resin (GE Healthcare). The resin was sequentially washed first with buffer A containing 10 mM Imidazole then with buffer A containing 20 mM Imidazole, and finally with buffer A containing 50 mM Imidazole. Protein sample was eluted from the resin using buffer A containing 300 mM Imidazole. The eluted protein was buffer exchanged by gel-filtration on a Superdex 200 10/300 GL column (GE Healthcare) equilibrated in Buffer B (20 mM HEPES pH 7.5, 300 mM NaCl, 2 mM dithiothreitol (DTT)).
as §4
(§6) Medium value out of duplicates is reported.

Assay [3] has as its target T3, USP2^CD (purified catalytic domain of USP2) (Homo sapiens, UniProt O75604).
T3 construct: The purified catalytic domain of USP2 (USP2^CD, in-house purified); His; made in house; host or cells: E. coli BL21 Gold
T3 sequence (O75604 267-599 limits assumed): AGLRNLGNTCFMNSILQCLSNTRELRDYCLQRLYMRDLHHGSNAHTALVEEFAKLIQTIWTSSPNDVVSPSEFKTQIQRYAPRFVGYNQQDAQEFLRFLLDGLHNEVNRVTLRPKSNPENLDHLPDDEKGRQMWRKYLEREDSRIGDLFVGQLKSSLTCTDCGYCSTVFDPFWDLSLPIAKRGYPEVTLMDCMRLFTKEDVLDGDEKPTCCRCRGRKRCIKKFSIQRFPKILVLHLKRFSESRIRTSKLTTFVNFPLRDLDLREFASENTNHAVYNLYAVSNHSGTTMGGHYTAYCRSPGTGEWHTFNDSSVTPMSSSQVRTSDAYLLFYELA
Description: Inhibition of purified USP2^CD enzymatic activity (Ub-AMC or Ub-Rho substrate). In kind it is biochemical. The procedure: as §5
For His-tagged USP2CD, cells were resuspended in buffer C (10 mM TRIS pH 8.0, 100 mM NaCl, 10 mM Imidazole) and lysed using a sonicator. The lysate was clarified by centrifugation and applied to Ni Sepharose6 Fast Flow resin (GE Healthcare). The resin was sequentially washed with buffer C, then with buffer C containing 50 mM Imidazole. Protein sample was eluted from the resin using buffer C containing 250 mM Imidazole. The eluted protein was buffer exchanged by gel-filtration on a Superdex 200 10/300 GL column (GE Healthcare) equilibrated in Buffer D (15 mM Bis-TRIS pH 6.0, 100 mM NaCl, 1 mM dithiothreitol (DTT)).
as §4, §6

The record followed here is patent publication US11306063B2, “Heterocyclic naphthoquinones derivatives for use in the treatment of cancers including Cushing disease” (Commissariat a l'Energie Atomique et aux Energies …, priority 2016, dated 2022).

Like-named read-outs stand apart in the source and are kept apart here.

For orientation: EC50 means the concentration at which the effect is half-maximal. A high value points to a less potent agent. Regarding `CC(=O)O[C@H]1C(=O)[C@@]2(C)[C@H]([C@H](OC(=O)c3ccccc3)[C@]3(O)C[C@H](OC(=O)[C@H](O)[C@@H](NC(=O)c4ccccc4)c4ccccc4)C(C)=C1C3(C)C)[C@]1(OC(C)=O)CO[C@@H]1C[C@@H]2O` [Paclitaxel, reference compound], the 50% effective concentration (EC50) was 1.5 µM in the assay with MESSA cells and > 100 µM in the assay on MESSA DX5 cells (Homo sapiens, MES-SA/Dx5, 48 hours treatment, chemoresistant line). Moreover, the MESSA-DX5 cells death result with MESSA DX5 cells (high concentration (100 μM)) is reported as “did not induce MESSA-DX5 cells death”.
The term inhibition denotes the percentage by which the read-out fell short of the control. High values mean strong suppression, low ones little suppression. Regarding `Cc1cc(C)c(S(=O)(=O)Cc2nc3c(nc2CS(=O)(=O)c2c(C)cc(C)cc2C)C(=O)c2ccccc2C3=O)c(C)c1` [PCR7996], in assay [1], testing at 1 µM gave an inhibition of 25%, testing at 5 µM gave an inhibition of 51%, the inhibition at 25 µM was determined as 85% and 50 µM produced 95% inhibition. In assay [2], this molecule displayed an inhibition at 1 µM of 10%. For the same molecule, the “USP8^CD % inhibition” value in assay [2] (5 μM compound) turned out to be 70%. In addition, the “USP8^CD % inhibition” value in assay [2] (25 μM compound) worked out at 100%. The “USP8^CD % inhibition” value in assay [2] (50 μM compound) is 100%.
Broadly, the IC50 is the concentration at which inhibition is half-maximal. For `O=C1c2ccccc2C(=O)c2nc(CCl)c(CCl)nc21` [PCR8146], the inhibition at 1 µM worked out at 30% in assay [1] and 6% in assay [2]. The inhibition at 5 µM in assay [1] was determined as 50%. Also, at 25 µM the inhibition in assay [1] was 89%. This molecule also yielded an inhibition at 50 µM in assay [1] of 99%. In addition, the 50% inhibitory concentration (IC50) in assay [3] (Ub-AMC substrate at 1 μM, Table 2b, read-out: IC50 USP2 CD) amounted to 6 µM; in assay [2] (Ub-AMC substrate at 1 μM, Table 2b, read-out: IC50 USP8 CD) it was 2.1 µM. For the same molecule, the “USP8^CD % inhibition” value in assay [2] (0.1 μM compound) amounted to 11%; in assay [2] (0.5 μM compound), 35%; in assay [2] (5 μM compound), 43%; in assay [2] (25 μM compound) it was 90%; in assay [2] (50 μM compound), 100%.
Turning to `Cc1ccc(S(=O)(=O)Cc2nc3c(nc2CS(=O)(=O)c2ccc(C)cc2)C(=O)c2ccccc2C3=O)cc1` [PCR7985], the inhibition at 1 µM turned out to be 33% in assay [1] and 55% in assay [2]. The same molecule showed an inhibition at 5 µM in assay [1] of 49%. Also, testing at 25 µM in assay [1] gave an inhibition of 59%. The molecule also came in with an inhibition at 50 µM in assay [1] of 95%. The “USP8^CD % inhibition” value is recorded as 1% in assay [2] (0.1 μM compound); 20% in assay [2] (0.5 μM compound); 23% in assay [2] (5 μM compound); 61% in assay [2] (25 μM compound); 98% in assay [2] (50 μM compound).
For `O=C1c2ccccc2C(=O)c2nc(CS(=O)(=O)c3ccc(F)cc3)c(CS(=O)(=O)c3ccc(F)cc3)nc21` [PCR7993], the inhibition at 1 µM in assay [1] is 29%; in assay [2] it was 34%. The molecule also gave an inhibition at 5 µM in assay [1] of 59%. The same molecule had an inhibition at 25 µM in assay [1] of 58%. Moreover, the inhibition at 50 µM in assay [1] stood at 98%. Moreover, the “USP8^CD % inhibition” value in assay [2] (0.1 μM compound) is reported as 0%; in assay [2] (0.5 μM compound), 16%; in assay [2] (5 μM compound), 22%; in assay [2] (25 μM compound), 101%; in assay [2] (50 μM compound), 102%.
In assay [1], `O=C1c2ccccc2C(=O)c2nc(CS(=O)(=O)c3ccc([N+](=O)[O-])cc3)c(CS(=O)(=O)c3ccc([N+](=O)[O-])cc3)nc21` [PCR7991] had an inhibition at 1 µM of 46%, an inhibition at 5 µM of 79%, an inhibition at 25 µM of 94% and an inhibition at 50 µM of 93%. Moreover, the half-maximal inhibitory concentration (IC50) in assay [3] (Ub-Rhodamine substrate, Table 2a, read-out: IC50 against purified USP2^CD) worked out at 1.7 µM. Also, in assay [2] (0.1 μM compound), the “USP8^CD % inhibition” value is 42%. In assay [2] (0.5 μM compound), the “USP8^CD % inhibition” value amounted to 97%. In assay [2], this molecule registered an inhibition at 1 µM of 98%. Moreover, the half-maximal inhibitory concentration (IC50) in assay [2] (Ub-Rhodamine substrate, Table 2a, read-out: IC50 against purified USP8^CD) turned out to be 0.05 µM.
As to `CC/C=C/c1nc2c(nc1/C=C/CC)C(=O)c1ccccc1C2=O` [PCR8156], the inhibition at 1 µM came out at 0% in assay [1] and 7% in assay [2]. In assay [1], this molecule showed an inhibition at 5 µM of 28%. Besides, the inhibition at 25 µM in assay [1] came to 58%. This molecule also displayed an inhibition at 50 µM in assay [1] of 94%. Moreover, the “USP8^CD % inhibition” value in assay [2] (0.1 μM compound) amounted to 6%; in assay [2] (0.5 μM compound), 25%; in assay [2] (5 μM compound), 43%; in assay [2] (25 μM compound) it was 100%; in assay [2] (50 μM compound), 86%.
